Results: patent publication US11453660B2, “Androgen receptor and glucocorticoid receptor modulators” (ONCOSTELLAE, S.L., priority 2017, dated 2022)

Legend:
[1] = target: T1, Human Glucocorticoid Receptor (Homo sapiens, UniProt P04150); assay: Competition Binding in IM-9 Human Glucocorticoid Receptor (GR IM-9); conditions: cytosol from IM-9 cell line, 1.5 nM [3H]-Dexamethasone, 4° C. for 6 hours
T1 construct: endogenous in cells; host or cells: cytosol from IM-9 cell line
T1 sequence (P04150 1-777): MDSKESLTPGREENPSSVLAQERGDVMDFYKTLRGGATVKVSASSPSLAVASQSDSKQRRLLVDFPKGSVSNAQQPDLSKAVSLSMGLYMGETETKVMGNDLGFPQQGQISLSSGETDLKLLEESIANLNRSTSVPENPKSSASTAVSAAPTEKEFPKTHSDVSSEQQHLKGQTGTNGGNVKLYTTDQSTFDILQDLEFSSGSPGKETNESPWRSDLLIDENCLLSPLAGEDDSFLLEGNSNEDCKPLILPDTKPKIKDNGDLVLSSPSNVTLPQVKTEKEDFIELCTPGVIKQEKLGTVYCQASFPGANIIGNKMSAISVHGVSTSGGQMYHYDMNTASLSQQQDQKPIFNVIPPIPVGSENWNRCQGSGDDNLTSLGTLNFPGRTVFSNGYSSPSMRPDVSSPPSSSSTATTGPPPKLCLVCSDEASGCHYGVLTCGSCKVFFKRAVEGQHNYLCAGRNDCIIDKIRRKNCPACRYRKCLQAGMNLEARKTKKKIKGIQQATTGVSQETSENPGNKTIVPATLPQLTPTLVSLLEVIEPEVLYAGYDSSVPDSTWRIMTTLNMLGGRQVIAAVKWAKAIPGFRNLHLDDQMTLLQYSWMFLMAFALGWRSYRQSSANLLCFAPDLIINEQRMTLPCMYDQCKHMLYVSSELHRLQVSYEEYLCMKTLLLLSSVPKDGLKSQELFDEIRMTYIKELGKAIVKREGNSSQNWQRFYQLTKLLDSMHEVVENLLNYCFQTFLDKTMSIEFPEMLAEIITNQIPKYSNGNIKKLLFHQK
Procedure, shortened: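 Radioligand competition using 100 μg IM-9 cell cytosol and 1.5 nM [3H]-dexamethasone, incubated 6 h at 4° C in TES/molybdate buffer, pH 7.4. Filtration on PEI-treated GF/B filters, scintillation counting; nonspecific binding defined with 10 μM triamcinolone.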

AR-Receptor = target: T2, AR-Receptor (Homo sapiens, UniProt P10275); assay: Functional Assay AR-Receptor (MDA-MB-453 cells, luciferase); format: cell-based; conditions: antagonist effect in the presence of DHT 1 nM, 24 h, luciferase luminescence, read-out: AR antag KB
T2 sequence (P10275 1-920 Q868H): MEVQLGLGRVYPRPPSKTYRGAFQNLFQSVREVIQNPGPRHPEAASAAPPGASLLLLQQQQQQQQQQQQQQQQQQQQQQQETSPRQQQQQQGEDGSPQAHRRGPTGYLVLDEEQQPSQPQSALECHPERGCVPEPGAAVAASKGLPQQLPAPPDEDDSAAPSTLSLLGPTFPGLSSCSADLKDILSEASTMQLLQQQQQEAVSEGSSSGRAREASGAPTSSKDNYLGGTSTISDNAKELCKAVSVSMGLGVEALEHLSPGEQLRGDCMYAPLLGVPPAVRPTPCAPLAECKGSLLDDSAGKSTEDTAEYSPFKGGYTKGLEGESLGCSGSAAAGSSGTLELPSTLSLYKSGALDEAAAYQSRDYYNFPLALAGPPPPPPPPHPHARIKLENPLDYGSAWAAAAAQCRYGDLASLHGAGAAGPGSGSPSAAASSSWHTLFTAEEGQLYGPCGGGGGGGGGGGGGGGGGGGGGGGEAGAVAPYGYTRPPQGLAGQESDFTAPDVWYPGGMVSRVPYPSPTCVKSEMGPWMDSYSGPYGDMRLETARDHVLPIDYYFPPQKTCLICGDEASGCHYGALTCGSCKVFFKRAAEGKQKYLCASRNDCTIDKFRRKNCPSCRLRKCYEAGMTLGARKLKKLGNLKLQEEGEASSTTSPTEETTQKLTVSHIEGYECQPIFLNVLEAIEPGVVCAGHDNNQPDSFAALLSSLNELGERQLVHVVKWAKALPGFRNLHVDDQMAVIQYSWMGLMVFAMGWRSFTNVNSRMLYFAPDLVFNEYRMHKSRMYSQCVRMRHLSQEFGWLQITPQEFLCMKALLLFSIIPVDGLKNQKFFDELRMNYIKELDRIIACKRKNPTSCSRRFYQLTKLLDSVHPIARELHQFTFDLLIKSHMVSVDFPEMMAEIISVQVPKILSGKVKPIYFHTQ
Protocol: Functional Assay AR-Receptor
MDA-MB-453 cells were cultured in DMEM (ATCC, ref 30-2002), 10% FBS, 1% penicillin, 1% streptomycin, 75 μg/ml gentamycin.
The day before performing assay, the cells were trypsinized and seeded in a 384-well plate (Greiner, ref 781098) (8000 cells/well) in 50 μl of complete culture medium. Cells were stores at 37° C. in a 5% CO2 atmosphere overnight.
The medium was replaced by 50 μl complete growth medium with 0.1% FBS. Compounds were dispensed with Echo 550 (Labcyte) and incubated for 24 h at 37° C. in a 5% CO2 atmosphere. Antagonist effect was measured in the presence of DHT 1 nM.
After incubation, assay medium removed and 20 μl of 1× Promega lysis buffer were added to each well. The plate was incubated 15 minutes at RT and quick-frozen to −80° C. and the thaw to room temperature. 50 μl of luciferase substrate (E4550, Promega) were added to each well and luminescence (integration time 1000 msec) was read in an EnSpire multilabel reader (Perkin Elmer).

| SMILES | IC50 [1] | Kb (AR-Receptor) |
| --- | --- | --- |
| CC(=O)C1=C(C)NC(C)=C(C(=O)OC2CCC(F)(F)CC2)C1c1csc2ncccc12 (centres unmarked) [Example C79, 4,4-difluorocyclohexyl 5-acetyl-2,6-dimethyl-4-(thieno[2,3-b]pyridin-3-yl)-1,4-dihydropyridine-3-carboxylate] | < 0.1 µM | ≥ 1 µM |
| CC(=O)C1=C(C)NC(C)=C(C(=O)N(C)Cc2ccccc2)C1c1csc2ncccc12 (centres unmarked) [Example C80, 5-Acetyl-N-benzyl-N,2,6-trimethyl-4-(thieno[2,3-b]pyridin-3-yl)-1,4-dihydropyridine-3-carboxamide] | ≥ 1 µM | ≥ 1 µM |
| COC(=O)C1=C(C2CC2)NC(C2CC2)=C(C#N)C1c1csc2c(C#N)cccc12 (centres unmarked) [Example C107, Methyl 5-cyano-4-(7-cyanobenzo[b]thiophen-3-yl)-2,6-dicyclopropyl-1,4-dihydropyridine-3-carboxylate] | < 0.1 µM | ≥ 1 µM |
| CC(=O)C1=C(C)NC(C)=C(C(=O)OCc2cccc(CN3CCN(C)CC3)c2)C1c1csc2c(Br)cccc12 (centres unmarked) [Example C108, 3-((4-methylpiperazin-1-yl)methyl)benzyl 5-acetyl-4-(7-bromobenzo[b]thiophen-3-yl)-2,6-dimethyl-1,4-dihydropyridine-3-carboxylate] | < 0.1 µM | ≥ 1 µM |
| CC(=O)C1=C(C)NC(C2CC2)=C(C(=O)OCC2CC2)C1c1csc2cc(C#N)ccc12 (centres unmarked) [Example C122, Cyclopropylmethyl 5-acetyl-4-(6-cyanobenzo[b]thiophen-3-yl)-2-cyclopropyl-6-methyl-1,4-dihydropyridine-3-carboxylate] | 0.1 to 1 µM | < 0.1 µM |
| CC(=O)C1=C(C)NC(N)=C(C(=O)OC2CCCC2)C1c1csc2c(Br)cccc12 (centres unmarked) [Example D6, Cyclopentyl 5-acetyl-2-amino-4-(7-bromobenzo[b]thiophen-3-yl)-6-methyl-1,4-dihydropyridine-3-carboxylate] | 0.1 to 1 µM | ≥ 1 µM |
| COC(=O)C1=C(C)NC(N)=C(C(=O)OC)C1c1csc2c(C#N)cccc12 (centres unmarked) [Example D7, Dimethyl 2-amino-4-(7-cyanobenzo[b]thiophen-3-yl)-6-methyl-1,4-dihydropyridine-3,5-dicarboxylate] | < 0.1 µM | ≥ 1 µM |
| CC(=O)C1=C(C)NC(C2CC2)=C(C(=O)OCc2ccc(C#N)cc2)C1c1csc2ncccc12 (centres unmarked) [Example J43, 4-cyanobenzyl 5-acetyl-2-cyclopropyl-6-methyl-4-(thieno[2,3-b]pyridin-3-yl)-1,4-dihydropyridine-3-carboxylate] | < 0.1 µM | 0.1 to 1 µM |
| CC(=O)C1=C(C)NC(C)=C(C(=O)OCc2ccccc2-c2ccncc2)C1c1csc2ncccc12 (centres unmarked) [Example L5, 2-(pyridin-4-yl)benzyl 5-acetyl-2,6-dimethyl-4-(thieno[2,3-b]pyridin-3-yl)-1,4-dihydropyridine-3-carboxylate] | < 0.1 µM | ≥ 1 µM |
| CC(=O)C1=C(C)NC(C)=C(C(=O)OCc2cncc(-c3ccncc3)c2)C1c1csc2ncccc12 (centres unmarked) [Example L7, [3,4′-bipyridin]-5-ylmethyl 5-acetyl-2,6-dimethyl-4-(thieno[2,3-b]pyridin-3-yl)-1,4-dihydropyridine-3-carboxylate] | 0.1 to 1 µM | ≥ 1 µM |
